According to US20040171089A1, “High-throughput screening assay for identifying substances capable of modulating cell survival and/or proliferation” (priority 2001, published 2004):

Legend:
[1] = test system: MDA MB 468 cells; assay: Fura-2 calcium imaging, MDA MB 468 cells; assay type: cell-based, human; details: for % increase of cytosolic calcium / % increase of cytosolic calcium (peak 340/380 nm fura-2 ratio): MDA 468 cells
Method: Human mammary carcinoma (MDA MB 468) cells were obtained from ATCC, Manassas, Va., USA; catalogue number HTB-132; cells were grown in accordance with the manufacturer's instructions.
(§1) For calcium imaging experiments cells were plated onto poly-L-lysine coated coverslips (13 mm). Single cell imaging was performed utilizing a MiraCal Imaging facility (Life Science Resources, Cambridge, U.K.) with a Nikon Diaphot-TMD inverted epifluorescence microscope equipped with a ×40 oil immersion objective and Sutter filter wheel. The imager was equipped with a Lambert intensifier 1187 (Life Sciences Resources) providing a ×30 enhancement of the fluorescent signal, thus limiting phototoxicity.
Fura-2 acetoxymethyl ester (fura-2 AM) incubations with the cells were performed at 37° C. in a medium containing (in mM): 120 NaCl, 3.5 KCl, 0.4 KH2PO4, 5 NaHCO3, 1.2 Na2SO4, 15 glucose, 1.2 MgCl2, 1 CaCl2, and 20 TES [N-tris(hydroxymethyl) methyl-2-aminoethane sulphonic acid] pH adjusted to 7.4 with NaOH. Typically cells were incubated in 3 μM fura-2 AM for 25 min., which permitted sufficient accumulation of free fura-2 in the cell cytoplasm. Cells were then illuminated alternately at 340 and 380 nm with the emitted 505 nm light being detected by a photomultiplier. Free fura emits maximally when excited at 380 nm, whilst the calcium bound fura has a maximal emission when excited at 340 nm. Thus the ratio of emission when alternately excited at 340/380 nm is a measure of the calcium concentration in equilibrium with the chelator. Changes of intracellular calcium were quantified as the percentage increase of the fluorescent ratio (determined at ˜505 nm) obtained by exciting the test cells alternatively at 340 nm (optimal for calcium bound dye) and 380 nm.

[2] = test system: adult dermal fibroblasts; assay: MTS cell viability/proliferation assay, adult dermal fibroblasts; assay type: cell-based, human; details: 1-10 μM
Method: This was carried out using an MTS assay (reagents from Promega Corporation, Madison Wis., USA) which is a modification of the MTT assay (as described in Jacobson et al, 1994 EMBO J Vol 13 pp1899-1910). The assay depends on conversion of the MTS tetrazolium compound to a coloured formazan product in metabolically active cells; it is therefore an assay of viable cell number. A decline in values implies cell killing as long as cell disappearance by apoptosis in untreated cell populations is absent or negligible (as with most healthy primary cell populations).
Cells were seeded in the range 1.5×10^5-1.8×10^5 cells per ml of culture medium in 96 well microtitre plates and allowed to attach in a humidifed atmosphere of 5% CO2 in air at 37 deg C. Drugs were added 18-24 hours later and cell viability/proliferation measured at time intervals up to 48-72 hours post-drug addition when the experiment was terminated. Mean (±SE) values at each time point were obtained from wells in triplicate.
Cell viability was measured as follows: 20 μl of MTS solution (Promega) was added to wells and incubated at 37 deg C. for 3 hours during which time a coloured formazan product is generated in viable cells. […] Viable cell number was then measured by reading absorbance at 490 nm in a Dynex microtitre plate reader. […]

[3] = test system: phospholipase C; assay: Quantitative HPLC assay of inositol phosphates (IP3 levels) in MDA MB 468 cells; assay type: cell-based, human; details: [3H] inositol labelled cells
Description: The PH domain of PLC delta 1 has a higher affinity for the phosphoinositide IP3 compared to PIP2. IP3 is produced from PIP2 in response to activation of PLC. Since PIP2 is membrane-bound whereas IP3 is cytosolic, the activation of PLC can be visualised in living cells by the relocalisation of GFP-PH PLC delta 1 from membrane to cytosol. A proviso to this interpretation is that, in conditions where PIP2 levels decline relative to IP3, the net effect would be relocalisation of GFP-PH PLC delta 1 from membrane to cytosol. Thus, to exclude this possibility, quantitative phospholipid assays were performed. (In this analysis, cells were labelled with [^3H] inositol in inositol-free DMEM (In Vitrogen—Gibco) with dialysed FBS for 48 hours before exposure to sigma ligands. Cells were then lysed and subjected to quantitative HPLC assay). These assays confirmed that IP3 levels had risen in cells exposed to sigma antagonists (IP3 levels had risen to 240% and 166% of the level prior to provision of the test substance in response to IPAG and rimcazole respectively) but had not risen in cells exposed to sigma-1 or sigma-2 agonists. This confirmed activation of PLC by sigma antagonists.

[4] = test system: cerebellar granule neurones; assay: Fura-2 calcium imaging, cerebellar granule neurones; assay type: cell-based, rat; details: 3 μM; cerebellar granule cells
Method: Cerebellar granule cells were prepared from 6-7 day post natal rats as previously described (see Courtney, M. J., Lambert, J. J. and Nicholls, D. G. [1990] J. Neuroscience 10: 3873-3879).
as §1
Fura-2 acetoxymethyl ester (fura-2 AM) incubations with the cells were performed at 37° C. in a medium containing (in mM): 120 NaCl, 3.5 KCl, 0.4 KH2PO4, 5 NaHCO3, 1.2 Na2SO4, 15 glucose, 1.2 MgCl2, 1 CaCl2, and 20 TES [N-tris(hydroxymethyl) methyl-2-aminoethane sulphonic acid] pH adjusted to 7.4 with NaOH. […] Cells were then illuminated alternately at 340 and 380 nm with the emitted 505 nm light being detected by a photomultiplier. […] Changes of intracellular calcium were quantified as the percentage increase of the fluorescent ratio (determined at ˜505 nm) obtained by exciting the test cells alternatively at 340 nm (optimal for calcium bound dye) and 380 nm.

## N=C(Nc1ccc(I)cc1)NC1C2CC3CC(C2)CC1C3 (stereo not shown) [IPAG, 1-(4-iodophenyl)-3-(2-adamantyl)guanidine]
[1]; 1 μM, 100 μM extracellular calcium
  % increase of cytosolic calcium: 40±14%
[1]; 1 μM, 1 mM extracellular calcium (FIG. 3a experiment)
  % increase of cytosolic calcium: 157±10%
[1]; 1 μM
  % increase of cytosolic calcium (peak 340/380 nm fura-2 ratio): 54±7%
[1]; 1 μM, absence of extracellular calcium
  % increase of cytosolic calcium: 1±0.4%
[1]; 3 μM
  % increase of cytosolic calcium (peak 340/380 nm fura-2 ratio): 112±8%
[1]; 10 μM, 100 μM extracellular calcium
  % increase of cytosolic calcium: 237±12%
[1]; 10 μM, 0.1 mM extracellular calcium, MDA MB 468 cells
  time of decline of intracellular calcium to baseline: ≤ 10 min
[1]; 10 μM, 1 mM extracellular calcium (FIG. 3a experiment)
  % increase of cytosolic calcium: 230±12%
[1]; 10 μM, 1 mM extracellular calcium, MDA MB 468 cells
  time calcium elevation remains close to peak levels: at least 30 minutes
[1]; 10 μM
  % increase of cytosolic calcium (peak 340/380 nm fura-2 ratio): 125±7%
[1]; 10 μM, MDA MB 468 cells
  time to peak effect on cytosolic calcium: ≤ 5 min
[1]; 10 μM, absence of extracellular calcium
  % increase of cytosolic calcium: 4±2%
[1]; MDA MB 468 cells, FIG. 2a: IPAG 1-10 μM, rimcazole 10-30 μM, (+)-SKF 10,047 10 μM, (+)-pentazocine 10-30 μM, ibogaine 10-50 μM
  effect on cytosolic calcium levels (in words): increase cytosolic calcium levels
[2]
  Cytotoxicity: not cytotoxic
[3]
  IP3 levels, % of the level prior to provision of the test substance: 240%
[4]
  % increase of cytosolic calcium (peak 340/380 nm fura-2 ratio): 20±2%
